“And” between values parts separate entries of the source, which are not always exact repeats. Equal entries are not always repeated.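 Results reflect a 48-hour exposure of cells in 96-well plates to compound at five concentrations. GI50: concentration for 50% inhibition of growth. TGI marks complete inhibition of growth.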
What was measured:
Experiment in all cases: NCI anticancer screen, dose series, 48 h
DU-145 prostate = tested on: DU-145 prostate
SNB-75 CNS = tested on: SNB-75 CNS
SW-620 colon = tested on: SW-620 colon
SF-268 CNS = tested on: SF-268 CNS
NCI/ADR-RES ovarian = tested on: NCI/ADR-RES ovarian
K-562 leukemia = tested on: K-562 leukemia
TK-10 renal = tested on: TK-10 renal
OVCAR-5 ovarian = tested on: OVCAR-5 ovarian
LOX IMVI melanoma = tested on: LOX IMVI melanoma
MDA-MB-231 breast = tested on: MDA-MB-231 breast

| SMILES | GI50 (DU-145 prostate) [µM] | TGI (DU-145 prostate) [µM] | GI50 (SNB-75 CNS) [µM] | TGI (SNB-75 CNS) [µM] | GI50 (SW-620 colon) | TGI (SW-620 colon) [µM] | GI50 (SF-268 CNS) [µM] | TGI (NCI/ADR-RES ovarian) [µM] | GI50 (K-562 leukemia) [µM] | TGI (K-562 leukemia) [µM] | TGI (TK-10 renal) [µM] | TGI (OVCAR-5 ovarian) [µM] | GI50 (LOX IMVI melanoma) [µM] | TGI (LOX IMVI melanoma) [µM] | TGI (MDA-MB-231 breast) [µM] | TGI (SF-268 CNS) [µM] | GI50 (MDA-MB-231 breast) [µM] | GI50 (NCI/ADR-RES ovarian) [µM] | GI50 (TK-10 renal) [µM] | GI50 (OVCAR-5 ovarian) [µM] |
| --- | --- | --- | --- | --- | --- | --- | --- | --- | --- | --- | --- | --- | --- | --- | --- | --- | --- | --- | --- | --- |
| CCOc1cc2c(cc1O)/C(=N\O)C[C@@H]1[C@@H]2CC[C@]2(C)[C@@H](O)CC[C@@H]12 | 0.0232 | > 100 | 0.00232 | 0.0166 | 0.0234 µM and 0.0382 µM | > 100 | 0.0884 | > 100 | 0.00978 | > 94.1 | > 100 | > 100 | 0.00721 | > 63.8 |  |  |  |  |  |  |
| c1ccc(-c2cc(C3CO3)c3ccccc3n2)cc1 (configuration not stated) |  | 34.7 |  | 62.6 |  | 71.3 |  | 57.6 |  | 93.1 | 53.4 | 40.5 |  | 34.1 | 51.7 | 47.3 |  |  |  |  |
| CCOC(=O)c1c2c(n(Cc3ccccc3)c1C)-c1ccccc1C(=O)C2=O | 4.21 | 12.4 | 10.7 | 24.7 | 11.7 µM | 28.4 | 19.5 | 27.4 | 17.1 | > 100 | 34.6 | 40.4 | 11.8 | 24.6 | 27.9 | 47.2 | 13.1 | 9.42 | 16.3 | 15.5 |
| O=C(Nc1ccc(Cl)cc1F)c1cc(I)ccc1O | 3.1 | 47.9 | 0.187 | 2.82 | 2.44 µM | 13.6 | 1.67 | 8.68 | 1.09 | > 100 | 16.1 | > 100 | 1.42 | 6.79 | 7.49 | 15.1 | 1.67 | 2.02 | 4.21 | 4.21 |
| COc1cnc2c(c1)C(=O)c1c-2n(CCCN2CCC(O)CC2)c(=O)c2cc(F)ccc12 | 0.174 | 1.41 | 0.252 | 2.59 | 0.107 µM | 2.1 | 0.272 | 1.98 | 0.216 | 2.31 | 1.59 | 1.6 | 0.127 | 0.295 | 2.1 | 8.32 | 0.485 | 0.303 | 0.323 | 0.355 |
| Cc1cccc(C(=O)/C=C/SC(=NC#N)SCc2ccccc2)c1 | 19.7 | 46.4 |  |  | 6.45 µM | > 100 | 28.8 | 64.5 | 22 | > 100 | 32 | 38.1 | 26.9 | > 100 | 41.5 | > 100 | 20 | 24.4 | 13.1 | 19.4 |
| CCN1C(NN)=NS(=O)(=O)c2ccccc21 |  | > 100 |  |  |  | > 100 |  | > 100 |  | > 100 | > 100 | > 100 |  | > 100 | > 100 | > 100 |  |  |  |  |
| Cc1cc(C2=NNC(=O)Cc3cc4c(cc32)OCCO4)cc(C)c1N | 3.84 | > 100 | 1.25 | 4.32 | 0.965 µM | > 100 | 4.21 | 25.8 |  |  | > 100 | > 100 | 3.18 | > 100 | > 100 | > 100 | 6.25 | 0.882 | 8.96 | 8.02 |
| C=C(C)C1CC2(C)C(C)CC(OC(=O)/C(C)=C\C)CC2C(OC(=O)/C(C)=C\C)C1O (configuration not stated) |  | > 100 |  | > 100 |  | > 100 |  | > 100 |  |  | > 100 | > 100 |  | > 100 | > 100 | > 100 |  |  |  |  |
| CC(=O)c1c(C)n(C)c2c1nnc1ccccc12 |  | > 100 |  |  |  | > 100 |  | > 100 |  |  | > 100 |  |  | > 100 | > 100 | > 100 |  |  |  |  |
| OCC1OC(OCC(O)C(O)C(O)C(/C=N/Nc2ccccc2)=N/Nc2ccccc2)C(O)C(O)C1O (configuration not stated) |  | > 100 |  | > 100 |  | > 100 |  | > 100 |  |  | > 100 | > 100 |  | > 100 | > 100 | > 100 |  |  |  |  |
| CC(=O)c1cc2c(cc1Nc1c3ccccc3nc3occ(Cl)c13)OCO2 | 0.227 |  |  |  | 0.0344 µM | > 100 | 0.697 | 1.47 | 0.037 | > 100 | > 100 | > 100 | 0.435 | > 100 | 0.613 | > 100 | 0.283 | 0.236 | 0.409 | 0.616 |
| Oc1ccc(O)c(-c2cc(-c3ccccc3)nn2-c2ccccc2)c1 |  |  |  |  | 26 µM | > 100 | 16.4 | 29.7 | 21.7 | > 100 | 71 | 27 | 10.2 | 25 | > 100 | 64.8 | 30.3 | 11.5 | 14 | 10.6 |
| C=CC[P+](c1ccccc1)(c1ccccc1)c1ccccc1 | 7.33 | > 100 | 3.58 | 57.9 | 5.64 µM | > 100 | 5.46 | > 100 | 2.12 | > 100 |  | > 100 | 6.53 | > 100 | > 100 | > 100 | 7.61 | > 100 |  | 13.4 |
| CN(C)c1ccc(/C=C2\N=C(c3ccc([N+](=O)[O-])cc3)OC2=O)cc1 |  | > 100 |  | > 100 |  | > 100 |  |  |  | > 100 | > 100 | > 100 |  | 61.2 | > 100 | > 100 |  |  |  |  |
| CO/N=C(\C)c1cccc(Nc2cc(-c3ccccc3)nc3c(O)cccc23)c1 | 9.2 | 28 | 20.5 | 96.2 | 4.5 µM | 19.6 |  | 13.5 | 0.656 | > 100 | 22.8 | 60.7 | 8.56 | 24.3 | 9.4 |  | 2.74 | 2.02 | 6.89 | 20.3 |

— PubChem BioAssay (NCI)
